# Key:
# [1] = test system: Conjunctival epithelial cell line CCL-20.2; experiment: Caspase-3 activity of conjunctival epithelial cells incubated in serum-free medium (Z-DEVD-AFC fluorescence); assay type: cell-based; details: for caspase-3 activity compared with the control group: serum-free, 24 hours, n=3
# Protocol: (§1) Conjunctival epithelial cell line CCL-20.2 (obtained from American Type Culture Collection) was incubated in serum-containing medium 199 (Gibco) until 60-70% of confluent. The cells were washed with a serum-free medium and were resuspended in serum-free medium 199 containing albumin 1 mg/ml or serum-free medium 199 containing no albumin. The cells were then incubated for 24 hours and collected.
# The caspase-3 activities of the collected cells were determined. The cells were lysed in a buffer solution (50 mM HEPES, 1 mM dithiothreitol and 0.1 mM EDTA (pH7.4)) containing 0.1% CHAPS (3-[(3-cholamidopropyl) dimethylammonio]-2-hydroxy-1-propanesulfonic acid) and were centrifuged to collect the supernatant. The caspase activity in the supernatant was determined with 0.1 mM fluorescence substrate (Z-DEVD-AFC) by means of fluorescence intensity measurement(em:505 nm, ex:400 nm) (n=4).
# Conjunctival epithelial cell line CCL-20.2 (obtained from American Type Culture Collection) was incubated in serum-containing medium 199 (Gibco) until 70-80% of confluent. The cells were washed with serum-free medium and resuspended in serum-free medium 199 containing albumin 3 mg/ml; albumin 3 mg/ml+EGF10 ng/ml; albumin 3 mg/ml+vitamin A 0.1 μg/ml; or albumin 3 mg/ml+EGF10 ng/ml+vitamin A 0.1 μg/ml. […]
# The caspase-3 activities of the collected cells were measured. […] The caspase activity in the supernatant was determined with 0.1 mM fluorescence substrate (Z-DEVD-AFC) by means of fluorescence intensity measurement(em:505 nm, ex:400 nm) (n=3). […]
# The caspase-3 activities of the collected cells were measured. […] The caspase activity in the supernatant was determined with 0.1 mM fluorescence substrate (Z-DEVD-AFC) by means of fluorescence intensity measurement (em:505 nm, ex:400 nm) (n=3). […]
# The caspase-3 activities of the collected cells were measured. […] The caspase activity in the supernatant was determined with 0.1 mM fluorescence substrate (Z-DEVD-AFC) by means of fluorescence intensity measurement (em: 505 nm, ex: 400 nm) (n=3).
# [2] = test system: Conjunctival epithelial cell line CCL-20.2; experiment: DNA fragmentation (Cell Death Detection ELISAPLUS); assay type: cell-based; details: Example 1; albumin 1 mg/ml in serum-free medium 199, 24 hours, n=4; measured at 405 nm; control without albumin 0.111 ± 0.018
# Protocol: as §1
# DNA fragmentation was determined with the Cell Death Detection ELISAPLUS (Roche Diagnostics Corporation, Basel, Switzerland). 2×10^4 cells were lysed with 0.1 ml of buffering solution and centrifuged to collect the supernatant. The obtained supernatant as well as positive and background controls, each in the amount of 20 μl, was respectively added to a plate coated with streptavidin. After adding an immunologic reagent (incubation buffer: antihistone-biotin: anti-DNA-POD=18:1:1) 80 μl to each plate, it was coated with a film and shaken at 300 rpm for 2 hours at room temperature. Then the plate was washed with incubation buffer 250-300 μl for 3 times. After adding substrate (ABTS) solution 100 μl to the plate, it was shaken at 250 rpm for 10-20 minutes at room temperature. The measurement was 405 nm (reference wavelength 492 nm)(n=4).
substance,measurement,setting,value
albumin,Caspase-3 activity mean ± S.E.,"[1]; Example 1, albumin 1 mg/ml in serum-free medium 199, 24 hours, n=4, control without albumin 0.744 ± 0.246",0.510 ± 0.191 n mol/hr/mg protein
same,caspase-3 activity compared with the control group,"[1]; Example 2, FIG. 1, albumin 3 mg/ml, EGF 10 ng/ml, vitamin A 0.1 μg/ml",significantly lower
same,caspase-3 activity compared with the control group,"[1]; Example 3, FIG. 2, albumin 1 mg/ml, TGFα 10 ng/ml, TGFβ 10 ng/ml",significantly lower
same,DNA fragmentation mean ± S.E.,[2],0.096 ± 0.047

# From patent US6852687B2, “Method for inhibiting apoptosis” (Sucampo AG, priority 2001, dated 2005)
